According to patent US20260345596A1, “TREATMENT OF LOCALLY ADVANCED OR METASTATIC UROTHELIAL CARCINOMA WITH ERDAFINITIB” (priority 2023, published 2026):

Key:
[1] = Excretion after a single oral dose of radiolabeled erdafitinib; settings: for dose excreted: human, in vivo, po
QTc interval = experiment: Cardiac electrophysiology: QTc interval in dose escalation and dose expansion study (187 patients); settings: large effect = ≥20 ms
bacteria = experiment: Bacterial reverse mutation (Ames) assay
[2] = Protein binding in patients; settings: human, in vivo
[3] = system: FGFR phosphorylation and signaling; experiment: FGFR phosphorylation and signaling in cell lines expressing FGFR genetic alterations; format: cell-based; settings: cell lines with FGFR genetic alterations
clinical = settings: human, in vivo, po

For `COc1cc(OC)cc(N(CCNC(C)C)c2ccc3ncc(-c4cnn(C)c4)nc3c2)c1` [Erdafitinib, N-(3,5-dimethoxyphenyl)-N′-(1-methylethyl)-N-[3-(1-methyl-1H-pyrazol-4-yl)quinoxalin-6-yl]ethane-1,2-diamine], the “Dose recovered in feces” value [1] was “approximately 69%”, the “Dose recovered in urine” value [1] was 19% and the dose excreted ([1]; Dose recovered in feces as unchanged) was 19%. For the same compound, the dose excreted ([1]; Dose recovered in urine as unchanged) was 13%, the “Effect on QTc interval” value (QTc interval) was “no large effect (i.e., ≥20 ms) on the QTc interval” and the “Mutagenicity (Ames)” value (bacteria) was “not mutagenic”. For the same compound, the fraction unbound [2] was 0.003, the “FGFR phosphorylation and signaling” value [3] was “inhibited FGFR phosphorylation and signaling” and the CL/F (clinical) was 6.03 mL/min. For the same compound, the Vd/F (clinical) was 29 L, the “Solubility in organic solvents” value (Solubility; organic solvents) was “practically insoluble, or insoluble to freely soluble in organic solvents” and the “Solubility across the pH range of 1 to 7.4” value (Solubility; pH 1 to 7.4) was “adequate solubility across the pH range of 1 to 7.4”. For the same compound, the “Solubility in aqueous media” value (Solubility; wide range of pH values) was “slightly soluble to practically insoluble, or insoluble in aqueous media over a wide range of pH values”.
